Like-named read-outs stand apart in the source and are kept apart here. Residues, ends and D or L forms follow the SMILES beside them.
Assays:
[1] = test system: E. coli ATCC25922; assay type: cell-based, Escherichia coli
Text: (§1) The Yersinia ruckeri strain was kindly provided by Prof. Kurt Buchmann, University of Copenhagen, Faculty of Health and Medical Sciences, and the Flavobacterium psychrophilum strain was kindly provided by Prof. Inger Dalsgaard, DTU, Denmark. BW25113 is the Escherichia coli wild-type strain, a derivative of the F^-,λ^- E. coli K12 strain BD792 which was used in generating the KEIO collection. E. coli ATCC25922 is a clinical isolate, serotype O6 and is often used as control strain in antimicrobial susceptibility testing. All strains were grown in Mueller-Hinton-II medium, except L. monocytogenes which was grown in BHI medium and F. psychrophilum which was grown in TYES medium (Tryptone yeast extract plus salts). Incubation took place aerobically at 37°C, except for Y. ruckeri and A. salmonicida, which were grown aerobically at RT (20°C), C. jejuni NCTC11168 which was grown under microaerophilic conditions at 42°C and F. psychrophilum 1947 which was grown under aerobic conditions at 15°C. All plates were incubated for 18–20 hours, except the F. psychrophilum plates, which were incubated for 72 hours.
All plates were incubated for 18–20 hours, except the F. psychrophilum plates which were incubated for 72 hours.
All the MIC measurements were carried out in duplicate.

[2] = test system: E. coli ATCC25922
Procedure: The minimum inhibitory concentrations (MICs) of the AMPs were measured in 96-well microtiter plates according to the Clinical and Laboratory Standards Institute (CLSI, formerly National Committee for Clinical Laboratory Standards [NCCLS]). Briefly, liquid Mueller-Hinton-II medium containing increasing concentrations of AMPs is inoculated with a defined number of cells (approx. 10^5 CFUs/ml) in 96-well microtiter plates (polypropylene), whereas each plate also includes a positive growth control and a negative control (sterile control). After incubation, the MIC is determined by the lowest concentration showing no visible growth. All plates were incubated for 18–20 hours, except the F. psychrophilum plates which were incubated for 72 hours. […]

[3] = test system: BW25113 wild-type; test: MIC in LPS backgrounds; assay type: cell-based, Escherichia coli; conditions: E. coli BW25113 wild-type; CLSI; triplicates
Text: as §1
(§2) The minimum inhibitory concentrations (MICs) of the AMPs were measured in 96-well microtiter plates according to the Clinical and Laboratory Standards Institute (CLSI, formerly National Committee for Clinical Laboratory Standards [NCCLS]). Briefly, liquid Mueller-Hinton-II medium containing increasing concentrations of AMPs is inoculated with a defined number of cells (approx. 10^5 CFUs/ml) in 96-well microtiter plates (polypropylene), whereas each plate also includes a positive growth control and a negative control (sterile control). After incubation, the MIC is determined by the lowest concentration showing no visible growth. All plates were incubated for 18–20 hours, except the F. psychrophilum plates which were incubated for 72 hours.

[4] = test system: BW25113 ΔrfaC; assay type: cell-based, Escherichia coli; conditions: E. coli BW25113 ΔrfaC; CLSI; triplicates
Text: as §1, §2

[5] = test system: BW25113 ΔrfaE; assay type: cell-based, Escherichia coli; conditions: E. coli BW25113 ΔrfaE; CLSI; triplicates
Text: as §1, §2

[6] = test system: BW25113 ΔrfaF; assay type: cell-based, Escherichia coli; conditions: E. coli BW25113 ΔrfaF; CLSI; triplicates
Text: as §1, §2

[7] = test system: BW25113 ΔrfaG; assay type: cell-based, Escherichia coli; conditions: E. coli BW25113 ΔrfaG; CLSI; triplicates
Text: as §1, §2

[8] = test system: ATCC25922 ΔrfaC; assay type: cell-based, Escherichia coli; conditions: E. coli ATCC25922 ΔrfaC; CLSI; triplicates
Text: as §1, §2
(§3) Construction of knock-out mutants of E. coli ATCC25922 were constructed using the λ-Red recombinase gene replacement system. Primers for amplification of the npt gene of pKD4 are listed in S1 Table. The correct double-crossover and recombination event was confirmed by primers listed in S1 Table and by sequencing. Finally, the kanamycin cassette was removed.

[9] = test system: ATCC25922 ΔrfaE; assay type: cell-based, Escherichia coli; conditions: E. coli ATCC25922 ΔrfaE; CLSI; triplicates
Text: as §1, §2, §3

[10] = test system: ATCC25922 ΔrfaF; assay type: cell-based, Escherichia coli; conditions: E. coli ATCC25922 ΔrfaF; CLSI; triplicates
Text: as §1, §2, §3

[11] = test system: ATCC25922 ΔrfaG; assay type: cell-based, Escherichia coli; conditions: E. coli ATCC25922 ΔrfaG; CLSI; triplicates
Text: as §1, §2, §3

[12] = target: T1, proteinase K (Parengyodontium album, UniProt P06873); test: Protease stability: MIC after incubation with proteinase K; assay type: in vitro ADME; conditions: for Antimicrobial Activity MIC: proteinase K, protease:AMP 1:100 (w/w), 100 mM Tris-HCl pH 7.5, 37°C, test strain E. coli ATCC25922, triplicates
T1 construct: purchased NEB P8107S
Procedure: as §2
(§4) AMPs were heated at 70°C or 90° for 5, 15 or 30 minutes. An untreated control, which was kept at RT, was used as a control. After incubation at 70°C or 90°C, the minimum inhibitory concentrations (MICs) of the peptides were measured in 96-well microtiter plates according the Clinical and Laboratory Standards Institute (CLSI, formerly National Committee for Clinical Laboratory Standards [NCCLS]) […] After incubation, the samples were cooked for 10 minutes at 90°C to inactivate the protease. Afterwards, the antimicrobial activity was determined by measuring the minimal inhibitory concentration (see Antimicrobial susceptibility testing)). E. coli ATCC25922 was used as a test strain.

[13] = target: T2, trypsin (Bos taurus, UniProt P00760); test: Protease stability: MIC after incubation with trypsin; assay type: in vitro ADME; conditions: for Antimicrobial Activity MIC: trypsin, protease:AMP 1:100 (w/w), trypsin-ultra reaction buffer, 37°C, test strain E. coli ATCC25922, triplicates
T2 construct: purchased NEB P8101
T2 sequence (P00760 24-246): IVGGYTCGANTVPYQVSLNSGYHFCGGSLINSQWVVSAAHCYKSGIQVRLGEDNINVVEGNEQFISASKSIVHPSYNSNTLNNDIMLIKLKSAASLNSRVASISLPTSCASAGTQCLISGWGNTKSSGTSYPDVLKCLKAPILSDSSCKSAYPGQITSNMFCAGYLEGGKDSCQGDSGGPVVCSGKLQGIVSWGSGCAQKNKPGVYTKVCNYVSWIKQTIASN
Procedure: as §2, §4

T1 sequence (P06873 106-384): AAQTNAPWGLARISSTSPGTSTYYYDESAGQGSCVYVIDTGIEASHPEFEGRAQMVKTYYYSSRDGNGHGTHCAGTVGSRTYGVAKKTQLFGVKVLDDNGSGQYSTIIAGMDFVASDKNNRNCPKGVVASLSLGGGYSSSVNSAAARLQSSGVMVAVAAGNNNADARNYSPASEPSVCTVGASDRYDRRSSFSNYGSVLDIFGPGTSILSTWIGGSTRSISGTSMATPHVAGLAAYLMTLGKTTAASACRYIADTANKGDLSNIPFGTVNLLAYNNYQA

SMILES | Antimicrobial Activity MIC [1] [µg/mL] | Antimicrobial Activity MIC [3] [µg/mL] | Antimicrobial Activity MIC [4] [µg/mL] | Antimicrobial Activity MIC [5] [µg/mL] | Antimicrobial Activity MIC [6] [µg/mL] | Antimicrobial Activity MIC [7] [µg/mL] | Antimicrobial Activity MIC [8] [µg/mL] | Antimicrobial Activity MIC [9] [µg/mL] | Antimicrobial Activity MIC [10] [µg/mL] | Antimicrobial Activity MIC [11] [µg/mL] | other results
CC[C@H](C)[C@H](NC(=O)[C@H](CC(C)C)NC(=O)[C@H](CCCCN)NC(=O)[C@H](CC(C)C)NC(=O)[C@H](CC(C)C)NC(=O)[C@H](CCCCN)NC(=O)[C@H](CCCNC(=N)N)NC(=O)[C@H](Cc1ccccc1)NC(=O)[C@H](CC(C)C)NC(=O)[C@H](CCCCN)NC(=O)[C@H](CCCNC(=N)N)NC(=O)[C@H](CC(C)C)NC(=O)[C@@H](N)CCCCN)C(=O)N[C@@H](CCCNC(=N)N)C(=O)N[C@@H](CCCCN)C(=O)N[C@@H](CC(C)C)C(=O)N[C@@H](CC(C)C)C(=O)N[C@@H](CCCNC(=N)N)C(=O)O [Cap11-1-18m^2] (H-KLRKLFRKLLKLIRKLLR-OH) | 32 | 16 | 8 | 8 | 8 | 8 | 16 | 16 | 16 | 16 | Antimicrobial Activity MIC [2]: 32 µg/mL
CNC(C)C1CCC(N)C(OC2C(N)CC(N)C(OC3OCC(C)(O)C(NC)C3O)C2O)O1 (centres unmarked) [Gentamicin] | – | – | – | – | – | – | – | – | – | – | antimicrobial activity after protease (in words) ([12]; proteinase K for 30 minutes, control antibiotic): retained its full antimicrobial activity; Antimicrobial Activity MIC ([12]; 0 min): 1 µg/mL; Antimicrobial Activity MIC ([12]; 0.5 min, then 10 min 90°C): 1 µg/mL; Antimicrobial Activity MIC ([12]; 2 min, then 10 min 90°C): 1 µg/mL; Antimicrobial Activity MIC ([12]; 5 min, then 10 min 90°C): 1 µg/mL; Antimicrobial Activity MIC ([12]; 15 min, then 10 min 90°C): 1 µg/mL; Antimicrobial Activity MIC ([12]; 30 min, then 10 min 90°C): 1 µg/mL; antimicrobial activity after protease (in words) ([13]; trypsin for 30 minutes, control antibiotic): retained its full antimicrobial activity; Antimicrobial Activity MIC ([13]; 0 min): 1 µg/mL; Antimicrobial Activity MIC ([13]; 0.5 min, then 10 min 90°C): 1 µg/mL; Antimicrobial Activity MIC ([13]; 2 min, then 10 min 90°C): 1 µg/mL; Antimicrobial Activity MIC ([13]; 5 min, then 10 min 90°C): 1 µg/mL; Antimicrobial Activity MIC ([13]; 15 min, then 10 min 90°C): 1 µg/mL; Antimicrobial Activity MIC ([13]; 30 min, then 10 min 90°C): 1 µg/mL
CC[C@H](C)[C@H](NC(=O)[C@H](CCCCN)NC(=O)[C@H](Cc1c[nH]c2ccccc12)NC(=O)[C@H](CCCNC(=N)N)NC(=O)[C@@H](N)CCCNC(=N)N)C(=O)N[C@H](C(=O)N[C@H](C(=O)N[C@H](C(=O)N[C@@H](CCCNC(=N)N)C(=O)N[C@@H](Cc1c[nH]c2ccccc12)C(=O)N[C@@H](CCCNC(=N)N)C(=O)N[C@@H](CCCNC(=N)N)C(N)=O)[C@@H](C)CC)C(C)C)C(C)C [Sub5-NH2] (H-RRWKIVVIRWRR-NH2) | 4 | 4 to 8 | 2 | 2 | 2 | 2 | 1 | 1 | 1 | 1 | –
